Results as given in publication PMC11320730, “5-Methoxy-2-aminoindane Reverses Diet-Induced Obesity and Improves Metabolic Parameters in Mice: A Potential New Class of Antiobesity Therapeutics” (ACS Pharmacology & Translational Science, 2024).

What was measured:
DIO C57BL/6 mice = assay: Blood biochemistry in DIO mice; type: in vivo; conditions: 40 mg/kg/day
Experimental: (§1) Male C57BL/6 mice were used to establish DIO by feeding them a high-fat diet (HFD; 60% cal/L fat, 20% cal/L protein, and 20% cal/L carbohydrates; Research Diet, D12492) for 18 weeks. After this period, mice were treated with either vehicle (sterile water, N = 8) or MEAI (N = 11) daily for 28 days by gavage at a dose of 40 mg/kg/day. Age-matched control mice (N = 10) on a standard diet (STD; 14% kcal fat, 24% kcal protein, 62% kcal carbohydrates; NIH-31 rodent diet) received vehicle daily. The body weight of all mice was monitored daily, and total body fat and lean mass were determined by EchoMRI-100H (Echo Medical Systems LLC, Houston, Texas, USA). On day 29, at the end of the experimental period, mice were euthanized by a cervical dislocation under anesthesia. The kidneys, brain, liver, and fat pads were removed and weighed, and samples were either snap-frozen or fixed in buffered 4% formalin. Trunk blood was collected to determine the biochemical parameters.
Serum levels of alanine aminotransferase (ALT), aspartate aminotransferase (AST), alkaline phosphatase (ALP), cholesterol, triglycerides, high-density lipoprotein (HDL), and low-density lipoprotein (LDL) were quantified post-termination using the Cobas C-111 chemistry analyzer (Roche, Switzerland). Fasting blood glucose was measured using the Contour glucometer (Bayer, Pittsburgh, Pennsylvania, USA), while serum insulin was determined using an Ultra-Sensitive Mouse Insulin ELISA kit (Cat# 90080, Crystal Chem, Inc., Elk Grove Village, Illinois, USA). Serum-free fatty acid content was determined using a Free Fatty Acid Assay Kit (Cat# ab65341, Abcam, Cambridge, UK).

[1] = system: hepatic lipid metabolism regulators; assay: Western blotting of liver proteins in DIO mice; type: in vivo; conditions: 40 mg/kg/day
Experimental: as §1
Liver samples were prepared in a RIPA buffer (25 mM Tris–HCl pH 7.6, 150 mM NaCl, 1% NP-40, 1% sodium deoxycholate, 0.1% SDS), and the homogenates were prepared by using the Bullet Blender and zirconium oxide beads (catalog no. ZROB10, Next Advanced, Inc., New York, USA). Protein concentrations were measured with the Pierce BCA Protein Assay Kit (catalog no. 23225, Thermo Scientific, Illinois, USA). Samples were resolved by SDS-PAGE (4–15% acrylamide, 150 V) and transferred to PVDF or nitrocellulose membranes using the Trans-Blot Turbo Transfer System (Bio-Rad, California). The membranes were then incubated for 1 h in 5% milk (in 1× M TBS-T) to block unspecific binding. The membranes were incubated overnight with cluster of differentiation 36 (CD36; Abcam, Cambridge, UK; Cat# ab252922), stearoyl-CoA desaturase 1 (SCD1; Cell Signaling Technology, Danvers, Massachusetts; Cat# 2794S), fatty acid synthase (FASN; Cell Signaling Technology, Danvers, Massachusetts, USA; Cat# 3180S), 5′-adenosine monophosphate (AMP)-activated protein kinase alpha (AMPKα; Cell Signaling Technology, Danvers, Massachusetts, USA; Cat# 2532S), phosphorylated-AMPKα (Cell Signaling Technology, Danvers, Massachusetts, USA; Cat# 2535S), acetyl-CoA carboxylase (ACC; Cell Signaling Technology, Danvers, Massachusetts, USA; Cat# 3662S), and phosphorylated ACC (Cell Signaling Technology, Danvers, Massachusetts, USA; Cat# 3661S) antibodies at 4 °C. Antirabbit/mouse horseradish peroxidase (HRP)-conjugated secondary antibodies were used for 1 h at room temperature, followed by chemiluminescence detection using Clarity Western ECL Blotting Substrate (Bio-Rad, California). Densitometry was quantified by using ImageJ software. Quantification was normalized to anti-β actin antibody (Abcam, Cambridge, UK; Cat# ab49900) or valosin-containing protein (VCP) (Abcam, Cambridge, UK; Cat# ab204290).

5-HT1A = molecular target: T1, 5-HT1A (Homo sapiens, UniProt P08908); assay: Ligand binding assay (Eurofins); conditions: read-out: inhibitory activity (% inhibition of the binding of a specific ligand)
T1 construct: Eurofins (contract screening service)
Experimental: (§2) MEAI at 10 μM was tested in ligand binding assays at Eurofins Inc., as described previously.[20] Compound binding was calculated as a % inhibition of the binding of a ligand specific for each target. Results showing an inhibition or stimulation higher than 50% are considered to represent significant effects of MEAI. In each experiment, and if applicable, the respective reference compound was tested concurrently with MEAI and the data were compared with historical values determined at Eurofins. The experiment was accepted in accordance with the Eurofins validation Standard Operating Procedure.

5-HT2A = molecular target: T2, 5-HT2A (Homo sapiens, UniProt P28223); assay: Ligand binding assay (Eurofins); conditions: read-out: inhibitory activity (% inhibition of the binding of a specific ligand)
T2 construct: Eurofins (contract screening service)
Experimental: as §2

MAO-A enzyme = molecular target: T3, MAO-A enzyme (Homo sapiens, UniProt P21397); assay: Ligand binding assay (Eurofins); conditions: read-out: inhibitory activity (% inhibition of the binding of a specific ligand)
T3 construct: Eurofins (contract screening service)
Experimental: as §2

dopamine D2 receptor = molecular target: T4, dopamine D2 receptor (Homo sapiens, UniProt P14416); assay: Ligand binding assay (Eurofins); conditions: read-out: inhibitory activity (% inhibition of the binding of a specific ligand)
T4 construct: Eurofins (contract screening service)
Experimental: as §2

5-HT1A receptor = molecular target: 5-HT1A receptor; parameters: method as in PMID 30904940; conditions: cited from earlier work
[2] = system: norepinephrine transporter (NET); parameters: method as in PMID 30904940; conditions: cited from earlier work
5-HT2B receptor = system: 5-HT2B receptor; parameters: method as in PMID 29458138; conditions: cited from earlier work
MAO-A = system: MAO-A; parameters: method as in PMID 29458138; conditions: cited from earlier work
MAO-B = system: MAO-B; parameters: method as in PMID 29458138; conditions: cited from earlier work
[3] = system: vesicular monoamine transporter (VMAT); parameters: method as in PMID 29458138; conditions: cited from earlier work
5-HT2B = 5-HT2B (Homo sapiens, UniProt P41595); assay: 5-HT2B calcium influx assay (agonist) in BA/F3 cells; type: cell-based; parameters: host or cells: BA/F3 cells
5-HT2B, sequence (P41595 whole entry): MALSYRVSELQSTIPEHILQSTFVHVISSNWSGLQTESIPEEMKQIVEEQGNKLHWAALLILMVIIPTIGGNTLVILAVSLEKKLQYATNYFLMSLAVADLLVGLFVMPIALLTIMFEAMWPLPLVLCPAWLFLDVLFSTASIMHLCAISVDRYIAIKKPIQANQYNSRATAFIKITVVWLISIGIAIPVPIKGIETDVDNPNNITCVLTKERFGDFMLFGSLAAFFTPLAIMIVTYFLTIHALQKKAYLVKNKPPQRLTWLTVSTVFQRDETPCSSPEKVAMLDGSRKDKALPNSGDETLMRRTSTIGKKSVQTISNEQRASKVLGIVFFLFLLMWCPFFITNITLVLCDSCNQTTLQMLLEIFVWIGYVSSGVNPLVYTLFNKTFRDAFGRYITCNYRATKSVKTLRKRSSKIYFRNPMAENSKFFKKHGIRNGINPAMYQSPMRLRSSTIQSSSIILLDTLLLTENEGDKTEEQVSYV

T1 sequence (P08908 whole entry, species assumed): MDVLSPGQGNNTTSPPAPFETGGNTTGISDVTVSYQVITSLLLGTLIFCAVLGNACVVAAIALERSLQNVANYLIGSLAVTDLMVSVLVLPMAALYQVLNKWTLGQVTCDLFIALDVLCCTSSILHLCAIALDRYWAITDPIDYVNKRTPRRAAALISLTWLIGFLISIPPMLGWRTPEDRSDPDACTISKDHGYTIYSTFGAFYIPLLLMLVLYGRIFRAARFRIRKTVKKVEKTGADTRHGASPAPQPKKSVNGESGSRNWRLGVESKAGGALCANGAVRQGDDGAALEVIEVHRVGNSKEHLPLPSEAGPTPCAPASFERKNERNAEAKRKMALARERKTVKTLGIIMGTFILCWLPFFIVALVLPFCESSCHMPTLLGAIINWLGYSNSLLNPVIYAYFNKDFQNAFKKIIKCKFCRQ
T4 sequence (P14416 whole entry, species assumed): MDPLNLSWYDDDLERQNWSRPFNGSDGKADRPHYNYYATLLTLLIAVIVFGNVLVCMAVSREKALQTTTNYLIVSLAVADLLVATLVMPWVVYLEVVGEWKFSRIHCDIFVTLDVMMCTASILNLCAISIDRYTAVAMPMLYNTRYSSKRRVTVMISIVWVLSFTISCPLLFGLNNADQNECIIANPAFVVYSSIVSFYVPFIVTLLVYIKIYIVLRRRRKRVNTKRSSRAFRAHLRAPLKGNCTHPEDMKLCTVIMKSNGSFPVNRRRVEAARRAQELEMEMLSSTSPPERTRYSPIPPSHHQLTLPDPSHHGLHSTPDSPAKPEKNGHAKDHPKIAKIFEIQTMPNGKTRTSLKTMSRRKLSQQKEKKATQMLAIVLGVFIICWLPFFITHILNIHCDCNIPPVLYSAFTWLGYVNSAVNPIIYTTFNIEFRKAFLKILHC
T3 sequence (P21397 whole entry, species assumed): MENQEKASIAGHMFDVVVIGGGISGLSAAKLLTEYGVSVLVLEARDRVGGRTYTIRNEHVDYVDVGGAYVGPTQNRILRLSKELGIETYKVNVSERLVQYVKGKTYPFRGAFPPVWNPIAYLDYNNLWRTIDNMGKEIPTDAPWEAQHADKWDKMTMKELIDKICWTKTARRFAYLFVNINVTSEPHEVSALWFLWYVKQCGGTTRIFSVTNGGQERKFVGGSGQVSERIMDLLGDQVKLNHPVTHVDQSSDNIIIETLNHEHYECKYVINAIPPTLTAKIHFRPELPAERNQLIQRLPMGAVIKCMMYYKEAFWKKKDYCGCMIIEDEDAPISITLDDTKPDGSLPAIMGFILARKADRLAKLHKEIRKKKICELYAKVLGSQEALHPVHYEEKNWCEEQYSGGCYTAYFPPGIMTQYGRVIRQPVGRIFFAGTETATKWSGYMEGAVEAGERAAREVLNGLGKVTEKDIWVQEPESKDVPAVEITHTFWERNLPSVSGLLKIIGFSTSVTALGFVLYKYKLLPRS
T2 sequence (P28223 whole entry): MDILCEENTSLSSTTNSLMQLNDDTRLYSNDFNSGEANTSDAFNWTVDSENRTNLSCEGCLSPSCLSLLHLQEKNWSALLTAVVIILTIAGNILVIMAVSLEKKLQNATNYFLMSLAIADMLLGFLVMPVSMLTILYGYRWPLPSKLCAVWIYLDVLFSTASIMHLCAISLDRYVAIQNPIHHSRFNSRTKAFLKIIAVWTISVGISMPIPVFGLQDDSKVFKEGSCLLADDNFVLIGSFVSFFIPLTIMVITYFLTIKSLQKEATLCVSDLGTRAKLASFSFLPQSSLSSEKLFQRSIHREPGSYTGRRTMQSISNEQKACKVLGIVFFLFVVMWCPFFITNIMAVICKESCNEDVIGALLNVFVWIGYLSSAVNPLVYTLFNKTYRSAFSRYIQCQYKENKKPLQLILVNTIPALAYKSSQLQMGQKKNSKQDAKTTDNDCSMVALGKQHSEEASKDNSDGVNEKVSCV

COc1ccc2c(c1)CC(N)C2.Cl (stereo not drawn) [MEAI, 2,3-Dihydro-5-methoxy-1H-inden-2-amine hydrochloride]
insulin levels (DIO C57BL/6 mice): reduced
circulating leptin levels (DIO C57BL/6 mice; 28 days, vs HFD vehicle): effectively countered the HFD-induced elevation
serum serotonin levels (DIO C57BL/6 mice; 28 days, vs HFD vehicle): did not significantly alter
circulating levels of adiponectin (DIO C57BL/6 mice; across all groups): remained unchanged
circulating triglyceride levels (DIO C57BL/6 mice; across all groups): remained largely unchanged
HDL levels (DIO C57BL/6 mice; serum): without a significant change
HDL-to-LDL ratio (DIO C57BL/6 mice; serum): positive shift
free fatty acids (DIO C57BL/6 mice; serum): trend toward reduced
total cholesterol levels (DIO C57BL/6 mice; serum, did not reach statistical significance): downward trend
LDL (DIO C57BL/6 mice; serum, vs HFD vehicle): significant decrease
ALP levels (DIO C57BL/6 mice; serum, vs HFD-vehicle): significantly reduced
ALT levels (DIO C57BL/6 mice; serum, vs HFD-vehicle): did not significantly alter
AST levels (DIO C57BL/6 mice; serum, vs HFD-vehicle): did not significantly alter
CD36 protein levels [1]: remained unchanged
FASN protein levels [1]: significantly reduced
SCD1 protein levels [1]: significantly reduced
phosphorylated ACC (p-ACC) levels [1]: did not significantly affect
phosphorylated AMPK (p-AMPK) [1]: trend toward increased
inhibition at 10 µM (5-HT1A): > 50%
inhibition at 10 µM (5-HT2A): > 50%
inhibition at 10 µM (MAO-A enzyme): > 50%
inhibition at 10 µM (dopamine D2 receptor): > 50%
Ki (5-HT1A receptor): 2.5 µM
interaction with transporter [2]: interacts
binding inhibition (5-HT2B receptor): modest binding inhibition
binding inhibition (MAO-A): unaffected
binding inhibition (MAO-B): unaffected
binding inhibition [3]: unaffected
Emax (5-HT2B; BaF3, read-out: maximum response, calcium flux (percent of control response to serotonin at 0.25 μM), cytosolic Ca2+ mobilization, agonist mode): 18.6%
agonist activity at the 5-HT2B receptor (5-HT2B; calcium flux): did not act as an agonist
